# Laboratory results reported in patent US12083134B2, “Anacardic acid for neural repair” (Vanderbilt University, priority 2018, dated 2024).
# Key:
# [1] = tested on: experimental allergic encephalitis (EAE); experiment: EAE treatment, AA from earliest onset of paralytic signs; format: in vivo, mice
# From the text: (§1) The data is expressed as a percent area of myelin loss in three non-contiguous axial sections of the spinal cord; p<0.01 between treated and untreated groups when AA is given beginning day 0 or from the onset of symptoms.
# (§2) Experimental allergic encephalitis (“EAE”) is an autoimmune inflammatory demyelinating disease of the CNS. For experimental purposes, the disease is induced in animals by immunizing the animals with myelin antigens in adjuvant. […] Ten to twelve days after immunization, paralysis develops in the animals. The degree of paralysis is scored as follows: 1=limp tail, 2=ataxia of gait and paralysis of one or more limbs, 3=paralysis of two or more limbs, 4=weakness of all limbs, 5=death.
# To determine if treatment with AA would promote recovery after paralytic attack, the experiment shown in FIG. 13 was repeated but treatment with AA was not initiated until the earliest sign of disease appeared which occurred between days 11 and 12 following the initial immunization with MOG antigen. In the experiment, 10 mice were administered 0.25 mg/kg AA a day in DMSO and 10 mice were administered DMSO (vehicle). In the 10 mice that received 0.25 mg/kg AA a day, there was no difference in the mean maximal severity of the disease when compared to vehicle treated mice. The mean maximal severity was 2.8 in the vehicle treated group and was 2.6 in the AA treated group. However, there was a rapid reversal of paralysis in the AA treated group.
# When AA was administered at the earliest onset of clinical signs of paralysis, the percent demyelination score in the AA treated group was 2.9. In comparison, in the vehicle treated group the percent demyelination score was 7.2 (P<0.01) (FIG. 15).
# [2] = tested on: IL-33 protein in OPCs; experiment: Western blot of IL-33 protein in OPCs (nuclear extracts) cultured with AA; format: cell-based, rat; details: for increase in the protein level of IL-33: OPCs
# Procedure: FIG. 5 (top) provides the results of Western blot studies showing increased expression of IL-33 in the presence of AA in OPCs. […] Because IL-33 is mainly in the nucleus, the Wester blots were done with nuclear extracts and Lamin was used as the control.
# In addition, at a dose of 2.5 μM of AA, there was a 1.8 fold increase in the protein level of IL-33, and at a dose of 7.5 μM of AA, there was a 3.1 fold increase in the protein level of IL-33 (FIG. 5).
# [3] = tested on: experimental allergic encephalitis (EAE); experiment: EAE prevention, AA from day of immunization with MOG peptide; format: in vivo, mice
# From the text: In two experiments, only 2 of 10 mice in the AA treated group developed grade 1 paralysis. In the vehicle treated group, 9 out of 10 mice developed paralysis. Clinical scoring: 1=limp tail, 2=ataxia of gait and paralysis of one or more limbs, 3=paralysis of two or more limbs, 4=weakness of all limbs, 5=death.
# as §1, §2
# The EAE model has been used extensively to examine the efficacy of potential drugs for MS therapy. The efficacy of AA in preventing EAE in mice immunized with MOG peptide in adjuvant was tested. A total of 10 mice were administered 0.25 mg/kg of AA dissolved in DMSO (vehicle) and a total of 10 mice were administered the vehicle alone by intraperitoneal injection daily for the entire length of the study (28 days). AA was obtained from commercial sources. Nine of 10 animals in the vehicle group developed paralytic signs, with a mean maximal paralytic score of 2.66. Two of 10 animals that received AA developed paralysis which was scored as a grade 1 paralysis (P<0.01 treated versus placebo). There was also significant decrease in the loss of myelin in the […]. (FIG. 13).
# To confirm that the clinical scores calculated in the EAR experiments reflect pathology, the extent of demyelination in the cervical, thoracolumbar cord of each mouse in the vehicle treated and AA treated groups was examined. […]
compound,measurement,setting,value
"CCCCCCCCCCCCCCCc1cccc(O)c1C(=O)O [AA, anacardic acid]",mean maximal severity (clinical score),"[1]; AA 0.25 mg/kg a day from earliest sign of disease (days 11-12), vehicle 2.8",2.6
same,percent demyelination score,"[1]; AA 0.25 mg/kg/day from earliest onset of clinical signs, vehicle 7.2, P<0.01",2.9%
same,recovery from paralysis,"[1]; by day 24, AA 0.25 mg/kg a day from onset, one animal grade 2 weakness",all the other mice had fully recovered
same,"increase in IL-33 protein expression (image analysis of gels, FIG. 5)","[2]; OPCs nuclear extracts, Lamin control, concentration not given",1.6 fold
same,increase in the protein level of IL-33,[2]; AA 2.5 μM,1.8 fold
same,increase in the protein level of IL-33,[2]; AA 7.5 μM,3.1 fold
same,demyelination in the spinal cord,"[3]; AA 0.25 mg/kg daily from day 0, vehicle 9.9+/−4.0 percent",no demyelination
same,animals that developed paralysis,"[3]; AA 0.25 mg/kg ip daily for 28 days from immunization, vehicle nine of 10, P<0.01",2 of 10 and Two of 10
same,grade of paralysis (clinical score 1-5),"[3]; AA 0.25 mg/kg ip daily from immunization, affected animals",1
